The target of data set [1] is T1, Androgen receptor (Homo sapiens, UniProt P10275).
T1 sequence (P10275 whole entry): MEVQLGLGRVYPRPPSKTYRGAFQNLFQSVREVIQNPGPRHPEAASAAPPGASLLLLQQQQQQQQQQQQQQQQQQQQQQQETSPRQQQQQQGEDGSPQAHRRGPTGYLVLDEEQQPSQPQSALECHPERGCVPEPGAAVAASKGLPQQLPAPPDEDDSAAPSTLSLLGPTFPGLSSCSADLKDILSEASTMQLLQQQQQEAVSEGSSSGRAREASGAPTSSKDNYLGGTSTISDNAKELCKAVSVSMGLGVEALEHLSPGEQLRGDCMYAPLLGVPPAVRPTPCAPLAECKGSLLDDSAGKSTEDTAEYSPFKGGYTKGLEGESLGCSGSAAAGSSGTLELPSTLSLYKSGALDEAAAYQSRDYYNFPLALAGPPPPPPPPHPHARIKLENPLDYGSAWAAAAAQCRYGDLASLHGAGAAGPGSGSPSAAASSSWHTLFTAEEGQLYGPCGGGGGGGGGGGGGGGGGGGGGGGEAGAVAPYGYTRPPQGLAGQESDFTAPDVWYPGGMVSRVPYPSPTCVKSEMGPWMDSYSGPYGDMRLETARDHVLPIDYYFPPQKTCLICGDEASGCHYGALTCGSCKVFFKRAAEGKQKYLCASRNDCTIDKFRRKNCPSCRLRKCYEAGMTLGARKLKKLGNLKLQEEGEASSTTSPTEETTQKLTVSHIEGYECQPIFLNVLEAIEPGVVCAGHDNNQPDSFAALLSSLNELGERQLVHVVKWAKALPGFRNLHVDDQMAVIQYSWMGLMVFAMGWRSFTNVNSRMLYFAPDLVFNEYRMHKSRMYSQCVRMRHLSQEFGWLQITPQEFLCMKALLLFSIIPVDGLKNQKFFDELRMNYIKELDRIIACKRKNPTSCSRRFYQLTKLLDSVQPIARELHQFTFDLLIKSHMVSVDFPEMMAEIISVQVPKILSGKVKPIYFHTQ
Briefly: Inhibition of AR transcriptional activity in human LNCaP cells harboring ARR2PB-eGFP incubated for 72 hrs by fluorescence assay. The format is cell-based.

Data set [2] has as its target T2, Androgen receptor (Homo sapiens) (UniProt P10275).
T2 sequence (whole entry): T1 sequence (P10275 whole entry)
As to the kind of experiment: Binding affinity to GST-tagged AR ligand binding domain (unknown origin) at 10 uM measured after 4 hrs by fluorescence polarization assay.

Data set [3] has as its target T2, Androgen receptor (Homo sapiens). Briefly: Inhibition of AR transcriptional activity in human LNCaP cells harboring ARR2PB-eGFP at 10 uM incubated for 72 hrs by fluorescence assay. The following applies: filed as antagonist. The format is cell-based.
For data set [4], the species on record is Homo sapiens. Briefly: Antagonist activity at human androgen receptor N756A mutant at 10 uM by dual-Glo luciferase assay. The following applies: filed as antagonist.
For data set [5], the system named is NIH3T3. As to the kind of experiment: Cytotoxicity against mouse NIH3T3 cells assessed as reduction in cell viability incubated for 72 hrs by MTT assay. The format is cell-based. The following applies: nih3t3, 72 h. On the technique in general: Tetrazolium dyes change colour on reduction, which living cells bring about.
The subject of data set [6] is GES1. Briefly: Cytotoxicity against human GES1 cells assessed as reduction in cell viability incubated for 72 hrs by MTT assay. The format is cell-based. The following applies: ges1, 72 h.
Data set [7] concerns LNCaP. Briefly: Inhibition of colony formation in human LANCaP cells after 2 weeks by crystal violet staining based assay. The format is functional, cell-based. The following applies: dose 2-20 µM.
Data set [8] addresses T1, Androgen receptor.
Description: Binding affinity to GST-tagged AR ligand binding domain (unknown origin) measured after 4 hrs by fluorescence polarization assay
Data set [9] concerns the target T1, Androgen receptor. As to the kind of experiment: Inhibition of AR transcriptional activity in human LNCaP cells harboring ARR2PB-eGFP assessed as decrease in PSA level. The format is cell-based, LN-18.

Active and inactive are the calls of the source. The rule behind the calls is not given here. Bounds are passed on as bounds.

The IC50 is the concentration at which inhibition is half-maximal. On to `O=C(Nc1ccc2c(C(F)(F)F)cc(=O)oc2c1)c1ccccc1Cl`, for which the concentration for half-maximal inhibition (IC50) in data set [1] was > 50 µM. Same read-out and setting: in the case of `O=c1cc(C(F)(F)F)c2ccc(OCc3ccc(OC(F)(F)F)cc3)cc2o1` it was 25.1 µM; in that of `O=c1cc(C(F)(F)F)c2ccc(OCc3cc4c(cc3Cl)OCO4)cc2o1`, 1.47 µM.

In the case of `Oc1ccccc1/C=N/c1ccc2oc(-c3ccccc3)nc2c1`, the half-maximal inhibitory concentration (IC50) in data set [1] was > 50 µM. With `O=c1cc(C(F)(F)F)c2ccc(OCc3ccc4ccccc4c3)cc2o1`, the half-maximal inhibitory concentration (IC50) in data set [1] is > 50 µM. Still for that read-out and setting: in the case of `O=c1cc(C(F)(F)F)c2ccc(OCc3c(F)cccc3Cl)cc2o1` it was 0.78 µM; in that of `O=c1cc(C(F)(F)F)c2ccc(OCc3ccccc3)cc2o1`, 1.18 µM.

For `O=c1cc(C(F)(F)F)c2ccc(OCc3ccc(Cl)cc3)cc2o1`, in [1], half-maximal inhibition (IC50) was put at 1.04 µM. Still for that read-out and setting: in the case of `O=c1cc(C(F)(F)F)c2ccc(OCc3ccncc3)cc2o1` it was 1.9 µM; in that of `CCOC(=O)C(CC)Oc1ccc2c(C(F)(F)F)cc(=O)oc2c1` (stereo not drawn), > 50 µM; in that of `O=C(Nc1ccc2c(C(F)(F)F)cc(=O)oc2c1)c1nc2ncccn2n1`, > 50 µM. With `O=c1cc(C(F)(F)F)c2ccc(OCc3ccccn3)cc2o1`, in data set [1], the half-inhibitory concentration (IC50) was > 50 µM. Same read-out and setting: in the case of `O=c1cc(C(F)(F)F)c2ccc(OCc3ccc4c(c3)OCO4)cc2o1` it was 9.37 µM; in that of `O=C(Oc1ccc2c(C(F)(F)F)cc(=O)oc2c1)C1CCCCC1`, > 50 µM. Same read-out and setting: the figure for `COc1ccc(COc2ccc3c(C(F)(F)F)cc(=O)oc3c2)cc1` is 1.62 µM. Turning to `O=C(Nc1ccc2c(C(F)(F)F)cc(=O)oc2c1)c1ccccc1F`, the IC50 in data set [1] was > 50 µM. As to `O=c1cc(C(F)(F)F)c2ccc(OCc3ccccc3Br)cc2o1`, the midpoint of inhibition in data set [1], the IC50, lay at 0.94 µM. For the compound `Cn1cc(C(=O)Nc2ccc3c(C(F)(F)F)cc(=O)oc3c2)c(I)n1`, in data set [1], the half-maximal inhibitory concentration (IC50) was > 50 µM. The inhibition is the relative decrease from the control value, in per cent. `CC(C(=O)Nc1ccccc1Cl)c1ccc(-c2ccccc2)c(F)c1` (stereo not drawn): the outcome in [2] was inactive. Further, the inhibition in data set [3] turned out to be 40%. Take `CCn1cc(C(=O)Nc2ccc3c(C(F)(F)F)cc(=O)oc3c2)c(C)n1`: the concentration for half-maximal inhibition (IC50) in [1] is > 50 µM. Same read-out and setting: the figure for `O=c1cc(C(F)(F)F)c2ccc(OCc3ccc(C(F)(F)F)cc3)cc2o1` is 0.89 µM; for `O=c1cc(C(F)(F)F)c2ccc(OCc3cccnc3)cc2o1` it is > 50 µM. Take `O=C1C2CC=CCC2C(=O)N1c1cccc(C(F)(F)F)c1` (stereo not drawn): the outcome in [2] (filed as antagonist) was Active. In [3], the inhibition came to 40%. On to `Cc1cccc(COc2ccc3c(C(F)(F)F)cc(=O)oc3c2)c1`, for which half-maximal inhibition in data set [1] (IC50) was put at 1.4 µM. Same read-out and setting: the figure for `O=c1cc(C(F)(F)F)c2ccc(OCc3ccc([N+](=O)[O-])cc3)cc2o1` is > 50 µM. Same read-out and setting: the figure for `Cc1cccc(C(=O)Nc2ccc3c(C(F)(F)F)cc(=O)oc3c2)c1` is > 50 µM. In the case of `Cc1ccc(NCc2ccccc2OCc2cccc3ccccc23)cc1`, in data set [2], the result was inactive. Moreover, the inhibition in [3] is 40%. The compound `COC(=O)c1ccc(COc2ccc3c(C(F)(F)F)cc(=O)oc3c2)cc1` returned a concentration for half-maximal inhibition (IC50) in data set [1] of 30.7 µM. The same measure, in the same setting: in the case of `O=c1cc(C(F)(F)F)c2ccc(OCc3ccccc3F)cc2o1` it was 0.92 µM; in that of `COc1ccc([N+](=O)[O-])cc1COc1ccc2c(C(F)(F)F)cc(=O)oc2c1`, > 50 µM; in that of `O=c1cc(C(F)(F)F)c2ccc(OCc3cccc(Br)c3)cc2o1`, 2.28 µM. Consider `CNC(=O)c1ccc(N2C(=S)N(c3cnc(C#N)c(C(F)(F)F)c3)C(=O)C23CCC3)cc1F`, for which the outcome in data set [4] was Active. For the compound `Cc1ccc(COc2ccc3c(C(F)(F)F)cc(=O)oc3c2)cc1`, in data set [1], inhibition was half-maximal at 0.61 µM (IC50). The same measure, in the same setting: the figure for `O=C(c1ccccc1)c1ccc(/N=C/c2ccccc2O)cc1` is > 50 µM. Take `Cc1ccc(/N=C/c2ccccc2O)cc1Br`: in data set [1], the half-maximal inhibitory concentration (IC50) was > 50 µM.

With `O=c1cc(C(F)(F)F)c2ccc(OCc3ccccc3Cl)cc2o1`, in data set [1], the 50% inhibitory concentration (IC50) is 0.41 µM. The same measure, in the same setting: in the case of `O=c1cc(C(F)(F)F)c2ccc(OCc3ccc(F)cc3)cc2o1` it was 0.47 µM; in that of `O=C(Nc1ccc2c(C(F)(F)F)cc(=O)oc2c1)c1cccc(Cl)c1`, > 50 µM. As to `CNC(=O)c1ccc(N2C(=S)N(c3ccc(C#N)c(C(F)(F)F)c3)C(=O)C2(C)C)cc1F` [ENZALUTAMIDE], the Activity entry in [5] and in data set [6] was “Non-Toxic” throughout. Further, the result in data set [4] was Active. In addition, the inhibition entry in data set [7] was “Dose-dependent effect”. `O=c1cc(C(F)(F)F)c2ccc(OCc3ccc(-c4ccccc4)cc3)cc2o1`: in data set [1], the half-inhibitory concentration (IC50) is > 50 µM. The same measure, in the same setting: the figure for `NC(=O)c1ccc(COc2ccc3c(C(F)(F)F)cc(=O)oc3c2)cc1` is > 50 µM; for `C[C@H](Oc1cc(Cl)ccc1Cl)C(=O)Nc1ccc2c(C(F)(F)F)cc(=O)oc2c1` it is > 50 µM. Take `O=c1cc(C(F)(F)F)c2ccc(/N=C/c3ccccc3O)cc2o1`: the result in data set [2] (filed as antagonist) was Active. For the same compound, the concentration for half-maximal inhibition (IC50) in [8] turned out to be 1.66 µM; in data set [1], 5.57 µM; in data set [9], 3.71 µM. Also, the inhibition in data set [3] amounted to 40%. For `CC(=O)c1ccc(COc2ccc3c(C(F)(F)F)cc(=O)oc3c2)cc1`, the concentration for half-maximal inhibition (IC50) in data set [1] was > 50 µM. Same read-out and setting: in the case of `CC(C)c1ccc(COc2ccc3c(C(F)(F)F)cc(=O)oc3c2)cc1` it was 9.26 µM; in that of `COC(=O)C(CC(C)C)Oc1ccc2c(C(F)(F)F)cc(=O)oc2c1` (stereo not drawn), > 50 µM.

For the compound `Cn1cc(C(=O)Nc2ccc3c(C(F)(F)F)cc(=O)oc3c2)cn1`, the IC50 in data set [1] was > 50 µM. Same read-out and setting: in the case of `N#Cc1cccc(/N=C/c2ccccc2O)c1` it was > 50 µM; in that of `Oc1ccccc1/C=N/c1ccc(Cl)c(Cl)c1`, > 50 µM; in that of `Cn1cc(C(=O)Nc2ccc3c(C(F)(F)F)cc(=O)oc3c2)c(Br)n1`, > 50 µM. Still for that read-out and setting: in the case of `O=C(Nc1ccc2c(C(F)(F)F)cc(=O)oc2c1)c1ccccc1` it was > 50 µM. With `CC(O)c1cc(C(=O)N[C@@H](C)Cn2ccc(-c3ccc(C#N)c(Cl)c3)n2)n[nH]1` (stereo partly drawn), the result in data set [4] was Active. With `Cc1ccc(OC(=O)Nc2ccc3c(C(F)(F)F)cc(=O)oc3c2)c(C)c1`, the half-inhibitory concentration (IC50) in [1] was > 50 µM.
